Assay results taken from paper PMC6409085, “Three odorant-binding proteins are involved in the behavioral response of Sogatella furcifera to rice plant volatiles” (PeerJ, 2019).
Where “and” joins values, the source holds several entries; their conditions need not be identical. Equal values may be shown once.

Assays:
S. furcifera adults = experiment: Y-tube olfactometer behavioral trials; assay type: in vivo, Sogatella furcifera; settings: odorant 50 µL/L vs hexane; adults
Summary of the method: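 Single S. furcifera adults (2 days post-emergence, starved 0.5 h) chose between odorant (100 µL of 50 µL/L on filter paper) and hexane control in a glass Y-tube, charcoal-filtered humidified air 300 mL/min per arm, 25 ± 1 °C, 50% RH. Choice scored if insect passed half an arm and stayed >1 min within 10 min; 45 insects per compound, chi-squared test.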

SfurOBP1 = SfurOBP1 (Sogatella furcifera, UniProt V5T8N5); experiment: biochemical; assay type: binding; settings: for Fluorescence competitive binding assay, fluorescence intensity: OBP1, three replicate columns
Sequence of SfurOBP1 (V5T8N5 entry or part of it): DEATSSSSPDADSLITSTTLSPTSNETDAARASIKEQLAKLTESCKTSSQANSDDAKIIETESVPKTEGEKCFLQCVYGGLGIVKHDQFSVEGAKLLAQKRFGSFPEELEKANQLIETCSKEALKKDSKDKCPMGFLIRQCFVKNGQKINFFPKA
Summary of the method: (§1)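 First, 2.0 µM protein in 50 mM Tris-HCl (pH 7.4) was titrated with 1-NPN to obtain K1-NPN. Then odorants (2–20 µM final) competed against 2.0 µM 1-NPN, with fluorescence (ex 337 nm) recorded after 2 min. Ki was computed from IC50 via Ki = IC50/(1 + [1-NPN]/K1-NPN).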

SfurOBP3 = SfurOBP3 (Sogatella furcifera, UniProt V5T818); experiment: biochemical; assay type: binding; settings: for Fluorescence competitive binding assay, fluorescence intensity: OBP3, three replicate columns
Sequence of SfurOBP3 (V5T818 entry or part of it): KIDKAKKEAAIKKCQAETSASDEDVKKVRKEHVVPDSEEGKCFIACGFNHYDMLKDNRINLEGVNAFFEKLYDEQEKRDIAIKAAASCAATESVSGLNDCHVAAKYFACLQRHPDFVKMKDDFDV
Summary of the method: as §1

SfurOBP2 = SfurOBP2 (Sogatella furcifera, UniProt V5T759); experiment: biochemical; assay type: binding
Sequence of SfurOBP2 (V5T759 entry or part of it): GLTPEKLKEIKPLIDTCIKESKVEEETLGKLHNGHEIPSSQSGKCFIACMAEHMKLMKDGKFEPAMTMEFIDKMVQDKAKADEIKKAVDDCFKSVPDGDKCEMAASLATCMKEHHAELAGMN
Summary of the method: as §1

SfurOBP11 = SfurOBP11 (Sogatella furcifera, UniProt V5T6E3); experiment: biochemical; assay type: binding
Sequence of SfurOBP11 (V5T6E3 entry or part of it): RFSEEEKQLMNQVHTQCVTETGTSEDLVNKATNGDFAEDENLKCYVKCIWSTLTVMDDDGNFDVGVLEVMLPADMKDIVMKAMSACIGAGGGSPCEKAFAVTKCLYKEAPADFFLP
Summary of the method: as §1

## C=CC(C)(O)CCC=C(C)C (stereo not drawn) [linalool]
S. furcifera adults
  number of insects choosing hexane arm: 14
  number of insects choosing volatilies arm: 14
  number of insects failed (no choice): 12
SfurOBP1
  IC50: > 20 µM
SfurOBP1; ligand concentration 2 (μM)
  Fluorescence competitive binding assay, fluorescence intensity: 6084 and 5184 and 7029
SfurOBP1; ligand concentration 4 (μM)
  Fluorescence competitive binding assay, fluorescence intensity: 5717 and 6456 and 6034
SfurOBP1; ligand concentration 6 (μM)
  Fluorescence competitive binding assay, fluorescence intensity: 5873 and 6101 and 6679
SfurOBP1; ligand concentration 8 (μM)
  Fluorescence competitive binding assay, fluorescence intensity: 5733 and 6957 and 6693
SfurOBP1; ligand concentration 10 (μM)
  Fluorescence competitive binding assay, fluorescence intensity: 5847 and 5923 and 6121
SfurOBP1; ligand concentration 12 (μM)
  Fluorescence competitive binding assay, fluorescence intensity: 6065 and 6137 and 6412
SfurOBP1; ligand concentration 14 (μM)
  Fluorescence competitive binding assay, fluorescence intensity: 7822 and 5806 and 6262
SfurOBP1; ligand concentration 16 (μM)
  Fluorescence competitive binding assay, fluorescence intensity: 5059 and 6382 and 5339
SfurOBP1; ligand concentration 18 (μM)
  Fluorescence competitive binding assay, fluorescence intensity: 6537 and 6532 and 5815
SfurOBP1; ligand concentration 20 (μM)
  Fluorescence competitive binding assay, fluorescence intensity: 6056 and 5740 and 5464
SfurOBP3
  IC50: > 20 µM
SfurOBP3; ligand concentration 2
  Fluorescence competitive binding assay, fluorescence intensity: 45666 and 44893 and 46206
SfurOBP3; ligand concentration 4
  Fluorescence competitive binding assay, fluorescence intensity: 43749 and 45410 and 42660
SfurOBP3; ligand concentration 6
  Fluorescence competitive binding assay, fluorescence intensity: 44364 and 44740 and 45115
SfurOBP3; ligand concentration 8
  Fluorescence competitive binding assay, fluorescence intensity: 41369 and 43894 and 46339
SfurOBP3; ligand concentration 10
  Fluorescence competitive binding assay, fluorescence intensity: 41142 and 43565 and 45619
SfurOBP3; ligand concentration 12
  Fluorescence competitive binding assay, fluorescence intensity: 38618 and 37689 and 38140
SfurOBP3; ligand concentration 14
  Fluorescence competitive binding assay, fluorescence intensity: 35045 and 37361 and 38462
SfurOBP3; ligand concentration 16
  Fluorescence competitive binding assay, fluorescence intensity: 32691 and 35765 and 36425
SfurOBP3; ligand concentration 18
  Fluorescence competitive binding assay, fluorescence intensity: 35273 and 34668 and 35335
SfurOBP3; ligand concentration 20
  Fluorescence competitive binding assay, fluorescence intensity: 34176 and 32081 and 34822
SfurOBP2
  IC50: > 20 µM
SfurOBP2; ligand concentration 2 (unit not given), replicate column 1 of 3
  Fluorescence competitive binding assay, OBP2 (raw fluorescence reading): 22475
SfurOBP2; ligand concentration 2 (unit not given), replicate column 2 of 3
  Fluorescence competitive binding assay, OBP2 (raw fluorescence reading): 19579
SfurOBP2; ligand concentration 2 (unit not given), replicate column 3 of 3
  Fluorescence competitive binding assay, OBP2 (raw fluorescence reading): 19869
SfurOBP2; ligand concentration 4 (unit not given), replicate column 1 of 3
  Fluorescence competitive binding assay, OBP2 (raw fluorescence reading): 18324
SfurOBP2; ligand concentration 4 (unit not given), replicate column 2 of 3
  Fluorescence competitive binding assay, OBP2 (raw fluorescence reading): 21526
SfurOBP2; ligand concentration 4 (unit not given), replicate column 3 of 3
  Fluorescence competitive binding assay, OBP2 (raw fluorescence reading): 18676
SfurOBP2; ligand concentration 6 (unit not given), replicate column 1 of 3
  Fluorescence competitive binding assay, OBP2 (raw fluorescence reading): 20143
SfurOBP2; ligand concentration 6 (unit not given), replicate column 2 of 3
  Fluorescence competitive binding assay, OBP2 (raw fluorescence reading): 19481
SfurOBP2; ligand concentration 6 (unit not given), replicate column 3 of 3
  Fluorescence competitive binding assay, OBP2 (raw fluorescence reading): 21546
SfurOBP2; ligand concentration 8 (unit not given), replicate column 1 of 3
  Fluorescence competitive binding assay, OBP2 (raw fluorescence reading): 18566
SfurOBP2; ligand concentration 8 (unit not given), replicate column 2 of 3
  Fluorescence competitive binding assay, OBP2 (raw fluorescence reading): 19629
SfurOBP2; ligand concentration 8 (unit not given), replicate column 3 of 3
  Fluorescence competitive binding assay, OBP2 (raw fluorescence reading): 19018
SfurOBP2; ligand concentration 10 (unit not given), replicate column 1 of 3
  Fluorescence competitive binding assay, OBP2 (raw fluorescence reading): 17948
SfurOBP2; ligand concentration 10 (unit not given), replicate column 2 of 3
  Fluorescence competitive binding assay, OBP2 (raw fluorescence reading): 18880
SfurOBP2; ligand concentration 10 (unit not given), replicate column 3 of 3
  Fluorescence competitive binding assay, OBP2 (raw fluorescence reading): 17034
SfurOBP2; ligand concentration 12 (unit not given), replicate column 1 of 3
  Fluorescence competitive binding assay, OBP2 (raw fluorescence reading): 17194
SfurOBP2; ligand concentration 12 (unit not given), replicate column 2 of 3
  Fluorescence competitive binding assay, OBP2 (raw fluorescence reading): 16713
SfurOBP2; ligand concentration 12 (unit not given), replicate column 3 of 3
  Fluorescence competitive binding assay, OBP2 (raw fluorescence reading): 16298
SfurOBP2; ligand concentration 14 (unit not given), replicate column 1 of 3
  Fluorescence competitive binding assay, OBP2 (raw fluorescence reading): 15375
SfurOBP2; ligand concentration 14 (unit not given), replicate column 2 of 3
  Fluorescence competitive binding assay, OBP2 (raw fluorescence reading): 15983
SfurOBP2; ligand concentration 14 (unit not given), replicate column 3 of 3
  Fluorescence competitive binding assay, OBP2 (raw fluorescence reading): 16080
SfurOBP2; ligand concentration 16 (unit not given), replicate column 1 of 3
  Fluorescence competitive binding assay, OBP2 (raw fluorescence reading): 16976
SfurOBP2; ligand concentration 16 (unit not given), replicate column 2 of 3
  Fluorescence competitive binding assay, OBP2 (raw fluorescence reading): 14612
SfurOBP2; ligand concentration 16 (unit not given), replicate column 3 of 3
  Fluorescence competitive binding assay, OBP2 (raw fluorescence reading): 14664
SfurOBP2; ligand concentration 18 (unit not given), replicate column 1 of 3
  Fluorescence competitive binding assay, OBP2 (raw fluorescence reading): 15874
SfurOBP2; ligand concentration 18 (unit not given), replicate column 2 of 3
  Fluorescence competitive binding assay, OBP2 (raw fluorescence reading): 15679
SfurOBP2; ligand concentration 18 (unit not given), replicate column 3 of 3
  Fluorescence competitive binding assay, OBP2 (raw fluorescence reading): 13833
SfurOBP2; ligand concentration 20 (unit not given), replicate column 1 of 3
  Fluorescence competitive binding assay, OBP2 (raw fluorescence reading): 14349
SfurOBP2; ligand concentration 20 (unit not given), replicate column 2 of 3
  Fluorescence competitive binding assay, OBP2 (raw fluorescence reading): 13969
SfurOBP2; ligand concentration 20 (unit not given), replicate column 3 of 3
  Fluorescence competitive binding assay, OBP2 (raw fluorescence reading): 12873
SfurOBP11
  IC50: > 20 µM
SfurOBP11; ligand concentration 2, replicate 1
  Fluorescence intensity, fluorescence competitive binding assay, OBP11: 34595
SfurOBP11; ligand concentration 2, replicate 2
  Fluorescence intensity, fluorescence competitive binding assay, OBP11: 35145
SfurOBP11; ligand concentration 2, replicate 3
  Fluorescence intensity, fluorescence competitive binding assay, OBP11: 35691
SfurOBP11; ligand concentration 4, replicate 1
  Fluorescence intensity, fluorescence competitive binding assay, OBP11: 34126
SfurOBP11; ligand concentration 4, replicate 2
  Fluorescence intensity, fluorescence competitive binding assay, OBP11: 38977
SfurOBP11; ligand concentration 4, replicate 3
  Fluorescence intensity, fluorescence competitive binding assay, OBP11: 36540
SfurOBP11; ligand concentration 6, replicate 1
  Fluorescence intensity, fluorescence competitive binding assay, OBP11: 35921
SfurOBP11; ligand concentration 6, replicate 2
  Fluorescence intensity, fluorescence competitive binding assay, OBP11: 34102
SfurOBP11; ligand concentration 6, replicate 3
  Fluorescence intensity, fluorescence competitive binding assay, OBP11: 34901
SfurOBP11; ligand concentration 8, replicate 1
  Fluorescence intensity, fluorescence competitive binding assay, OBP11: 31879
SfurOBP11; ligand concentration 8, replicate 2
  Fluorescence intensity, fluorescence competitive binding assay, OBP11: 34190
SfurOBP11; ligand concentration 8, replicate 3
  Fluorescence intensity, fluorescence competitive binding assay, OBP11: 34940
SfurOBP11; ligand concentration 10, replicate 1
  Fluorescence intensity, fluorescence competitive binding assay, OBP11: 32152
SfurOBP11; ligand concentration 10, replicate 2
  Fluorescence intensity, fluorescence competitive binding assay, OBP11: 33920
SfurOBP11; ligand concentration 10, replicate 3
  Fluorescence intensity, fluorescence competitive binding assay, OBP11: 34003
SfurOBP11; ligand concentration 12, replicate 1
  Fluorescence intensity, fluorescence competitive binding assay, OBP11: 31331
SfurOBP11; ligand concentration 12, replicate 2
  Fluorescence intensity, fluorescence competitive binding assay, OBP11: 31885
SfurOBP11; ligand concentration 12, replicate 3
  Fluorescence intensity, fluorescence competitive binding assay, OBP11: 32147
SfurOBP11; ligand concentration 14, replicate 1
  Fluorescence intensity, fluorescence competitive binding assay, OBP11: 27789
SfurOBP11; ligand concentration 14, replicate 2
  Fluorescence intensity, fluorescence competitive binding assay, OBP11: 28913
SfurOBP11; ligand concentration 14, replicate 3
  Fluorescence intensity, fluorescence competitive binding assay, OBP11: 26664
SfurOBP11; ligand concentration 16, replicate 1
  Fluorescence intensity, fluorescence competitive binding assay, OBP11: 26184
SfurOBP11; ligand concentration 16, replicate 2
  Fluorescence intensity, fluorescence competitive binding assay, OBP11: 25844
SfurOBP11; ligand concentration 16, replicate 3
  Fluorescence intensity, fluorescence competitive binding assay, OBP11: 25199
SfurOBP11; ligand concentration 18, replicate 1
  Fluorescence intensity, fluorescence competitive binding assay, OBP11: 30237
SfurOBP11; ligand concentration 18, replicate 2
  Fluorescence intensity, fluorescence competitive binding assay, OBP11: 30011
SfurOBP11; ligand concentration 18, replicate 3
  Fluorescence intensity, fluorescence competitive binding assay, OBP11: 30462
SfurOBP11; ligand concentration 20, replicate 1
  Fluorescence intensity, fluorescence competitive binding assay, OBP11: 29291
SfurOBP11; ligand concentration 20, replicate 2
  Fluorescence intensity, fluorescence competitive binding assay, OBP11: 29263
SfurOBP11; ligand concentration 20, replicate 3
  Fluorescence intensity, fluorescence competitive binding assay, OBP11: 28048
